One may read the inhibition as the percentage by which the read-out fell short of the control. A higher inhibition goes with a strong effect.

For the series, the target named is Nav1.5 (sodium channel protein type 5 subunit alpha) (Homo sapiens, UniProt Q14524). Nature of the series: Inhibition of human Nav1.5 expressed in HEK293 cells at 1 uM by whole cell patch clamp assay. The format is cell-based. To be noted: HEK293 cells that express human Nav1.5. On the technique in general: The patch-clamp technique gives a direct electrical read-out from membranes.
Sequence of Nav1.5 (sodium channel protein type 5 subunit alpha) (Q14524 whole entry): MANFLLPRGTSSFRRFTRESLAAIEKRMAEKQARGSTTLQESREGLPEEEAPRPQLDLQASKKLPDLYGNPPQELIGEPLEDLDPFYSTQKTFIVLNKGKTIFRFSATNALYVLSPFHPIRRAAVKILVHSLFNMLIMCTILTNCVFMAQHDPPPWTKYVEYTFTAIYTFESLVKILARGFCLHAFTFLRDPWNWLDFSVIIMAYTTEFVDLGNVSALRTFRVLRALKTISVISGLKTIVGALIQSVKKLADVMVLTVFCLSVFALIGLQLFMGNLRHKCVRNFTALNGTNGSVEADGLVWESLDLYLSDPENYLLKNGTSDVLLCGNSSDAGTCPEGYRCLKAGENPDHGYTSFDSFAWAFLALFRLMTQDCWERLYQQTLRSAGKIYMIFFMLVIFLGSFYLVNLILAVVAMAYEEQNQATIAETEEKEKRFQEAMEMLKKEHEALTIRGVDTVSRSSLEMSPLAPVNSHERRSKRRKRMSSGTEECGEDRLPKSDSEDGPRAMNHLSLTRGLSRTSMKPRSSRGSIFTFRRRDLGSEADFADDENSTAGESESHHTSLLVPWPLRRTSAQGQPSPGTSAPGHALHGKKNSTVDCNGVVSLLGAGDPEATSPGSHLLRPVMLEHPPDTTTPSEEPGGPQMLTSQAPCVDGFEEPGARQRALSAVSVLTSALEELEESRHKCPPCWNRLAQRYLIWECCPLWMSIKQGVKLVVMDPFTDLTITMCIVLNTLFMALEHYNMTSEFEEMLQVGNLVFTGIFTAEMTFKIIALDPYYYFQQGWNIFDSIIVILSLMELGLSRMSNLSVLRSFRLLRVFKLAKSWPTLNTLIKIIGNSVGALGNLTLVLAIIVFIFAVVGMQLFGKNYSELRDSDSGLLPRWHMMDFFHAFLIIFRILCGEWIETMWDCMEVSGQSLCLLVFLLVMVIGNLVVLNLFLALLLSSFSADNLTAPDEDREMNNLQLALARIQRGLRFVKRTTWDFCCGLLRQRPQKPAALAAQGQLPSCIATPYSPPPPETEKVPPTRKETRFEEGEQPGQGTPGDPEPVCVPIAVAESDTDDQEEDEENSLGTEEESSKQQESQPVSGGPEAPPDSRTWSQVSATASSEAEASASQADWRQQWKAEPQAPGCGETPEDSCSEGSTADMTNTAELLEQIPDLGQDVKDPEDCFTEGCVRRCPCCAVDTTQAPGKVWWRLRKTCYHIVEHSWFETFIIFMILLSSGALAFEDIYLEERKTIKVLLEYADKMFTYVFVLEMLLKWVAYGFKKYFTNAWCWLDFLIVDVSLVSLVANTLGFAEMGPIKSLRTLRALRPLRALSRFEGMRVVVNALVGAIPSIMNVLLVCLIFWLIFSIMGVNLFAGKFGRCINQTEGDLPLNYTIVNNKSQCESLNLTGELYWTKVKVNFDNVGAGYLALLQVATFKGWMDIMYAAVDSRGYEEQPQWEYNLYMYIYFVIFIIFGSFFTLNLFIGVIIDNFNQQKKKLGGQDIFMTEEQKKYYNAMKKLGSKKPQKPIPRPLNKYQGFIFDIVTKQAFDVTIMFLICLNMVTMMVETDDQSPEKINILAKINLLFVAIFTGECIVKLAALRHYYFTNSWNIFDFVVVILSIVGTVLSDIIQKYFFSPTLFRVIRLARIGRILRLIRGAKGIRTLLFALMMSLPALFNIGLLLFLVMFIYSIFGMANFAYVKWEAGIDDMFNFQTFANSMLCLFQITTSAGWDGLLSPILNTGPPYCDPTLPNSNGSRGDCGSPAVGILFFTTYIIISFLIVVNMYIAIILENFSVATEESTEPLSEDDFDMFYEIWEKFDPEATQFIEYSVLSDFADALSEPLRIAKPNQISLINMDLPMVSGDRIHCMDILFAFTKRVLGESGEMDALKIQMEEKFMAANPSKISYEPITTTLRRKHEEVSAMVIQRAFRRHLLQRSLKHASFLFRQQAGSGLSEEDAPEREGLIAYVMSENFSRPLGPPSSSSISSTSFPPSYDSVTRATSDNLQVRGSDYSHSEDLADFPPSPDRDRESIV
With `COc1ccccc1OCC(Cn1nc2ccc(-c3ccc(OC(F)(F)F)cc3)cn2c1=O)OC` (centres undefined), at 1 µM the inhibition was 55%.
Under `Cc1nc(Cn2nc3ccc(-c4ccc(Oc5ccc(Cl)cc5)cc4)cn3c2=O)no1` stands 68.4%; under `Cc1noc(Cn2nc3ccc(-c4ccc(Oc5ccc(Cl)cc5)cc4)cn3c2=O)n1`, 55.8%.
The value for `Cc1noc(Cn2nc3ccc(-c4ccc(Oc5ccc(F)cc5)cc4)cn3c2=O)n1` was 71.2%.

(Values after ChEMBL document CHEMBL2146374, “Fused heterocyclic compounds as ion channel modulators: patent highlight” (ACS Med Chem Lett, 2012).)
